# Reference: US7803930B2, “Antisense modulation of apolipoprotein B-expression” (Isis Pharmaceuticals, Inc., priority 2002, dated 2010)
# In the oligonucleotide strings, read from the 5' end, every base follows the letter of its sugar. An asterisk marks phosphorothioate; unmarked linkages are phosphodiester. Other units and linkages are bracketed, terminal groups are in braces. A string of capitals states the bases alone. e = 2'-O-(2-methoxyethyl) (MOE); [5mC] = 5-methylcytosine; d = 2'-deoxy (DNA)
# Key:
# [1] = system: lipoprotein(a); assay: Lipoprotein(a) particle secretion from primary human hepatocytes, ELISA; type: cell-based; details: 24 hours
# Protocol: Primary human hepatocytes (InVitro Technologies, Baltimore, Md.), cultured and transfected as described herein, were treated for 24 hours with 50 or 150 nM of ISIS 271009 (SEQ ID NO: 319), 281625 (SEQ ID NO: 224), 301012 (SEQ ID NO: 247) or 301027 (SEQ ID NO: 262). Cells were also treated with 150 nM of the control oligonucleotides ISIS 113529 (SEQ ID NO: 859) or ISIS 13650 (SEQ ID NO: 806). Untreated cells served as a control. Following 24 hours of oligonucleotide treatment, the amount of lipoprotein(a) in the culture medium collected from the treated cells was measured using a commercially available ELISA kit (ALerCHEK Inc., Portland, Me.). The results are the average of three experiments and are expressed as percent change in lipoprotein(a) secretion relative to untreated controls.
# [2] = system: apolipoprotein B protein; assay: Apolipoprotein B protein secreted from primary human hepatocytes, ELISA; type: cell-based; details: 300 nM
# [3] = Transgenic mice dosing study (Example 52): serum total, LDL- and HDL-cholesterol; type: in vivo, mouse; details: serum
# Protocol: A long-term study of inhibition of human apolipoprotein B by ISIS 301012 in C57BL/6NTac-TgN(APOB100) mice (Taconic, Germantown, N.Y.) was conducted for a 3 month period. Mice were dosed intraperitoneally twice a week with 10 or 25 mg/kg ISIS 301012 (SEQ ID No: 247) for 12 weeks. Saline-injected animals served as controls. Each treatment group comprised 4 animals.
# Results are presented as mg/dL in serum and represent the average of 4 animals. Results from the saline control animals are also shown.
# [4] = system: human apolipoprotein B protein; assay: Transgenic mice (Example 47): serum human apolipoprotein B protein by ELISA; type: in vivo, human transgene in mouse; details: 25 mg/kg, relative to saline-treated animals
# Protocol: Serum samples were also collected at 2, 4, 6 and 8 weeks and were evaluated for human apolipoprotein B expression by using a human apolipoprotein B specific ELISA kit (ALerCHEK Inc., Portland, Me.). […] Treatment with ISIS 301012 reduced serum human apolipoprotein B protein by 70, 87, 81 and 41% at 2, 4, 6 and 8 weeks, respectively, relative to saline-treated control animals. Serum from transgenic mice was also subjected to immunoblot analysis using both human and mouse specific apolipoprotein B antibodies (US Biologicals, Swampscott, Mass. and Santa Cruz Biotechnology, Inc., Santa Cruz, Calif., respectively).
# [5] = 10 mg/kg i.p. twice a week, 2 weeks
# [6] = 10 mg/kg i.p. twice a week, 4 weeks
# [7] = 10 mg/kg i.p. twice a week, 6 weeks
# [8] = 10 mg/kg i.p. twice a week, 8 weeks
# [9] = 10 mg/kg i.p. twice a week, Start
# [10] = 25 mg/kg i.p. twice a week, 2 weeks
# [11] = 25 mg/kg i.p. twice a week, 4 weeks
# [12] = 25 mg/kg i.p. twice a week, 6 weeks
# [13] = 25 mg/kg i.p. twice a week, 8 weeks
# [14] = 25 mg/kg i.p. twice a week, Start
substance,measurement,setting,value
113529 (antisense e[5mC]*eT*e[5mC]*eT*eT*dA*d[5mC]*dT*dG*dT*dG*d[5mC]*dT*dG*dT*eG*eG*eA*e[5mC]*eA) [compound 113529],% Change in lipoprotein(a) secretion,[1]; 150 nM,+14%
same,% Change in apolipoprotein B protein secretion,[2]; 24 hours,−2%
same,% Change in apolipoprotein B protein secretion,[2]; 48 hours,−5%
301012 (eG*e[5mC]*e[5mC]*eT*e[5mC]*dA*dG*dT*d[5mC]*dT*dG*d[5mC]*dT*dT*d[5mC]*eG*e[5mC]*eA*e[5mC]*e[5mC]) [compound 301012],% Change in lipoprotein(a) secretion,[1]; 50 nM,−27%
same,% Change in lipoprotein(a) secretion,[1]; 150 nM,−37%
same,% Change in apolipoprotein B protein secretion,[2]; 24 hours,−41%
same,% Change in apolipoprotein B protein secretion,[2]; 48 hours,−48%
"ISIS 301012: SEQ ID NO: 247, antisense oligonucleotide targeted to human apolipoprotein B (antisense GCCTCAGTCTGCTTCGCACC; chemistry not given here)",HDL-cholesterol,[3]; [5],69 mg/dL
same,LDL-cholesterol,[3]; [5],20 mg/dL
same,Total cholesterol,[3]; [5],97 mg/dL
same,HDL-cholesterol,[3]; [6],78 mg/dL
same,LDL-cholesterol,[3]; [6],23 mg/dL
same,Total cholesterol,[3]; [6],111 mg/dL
same,HDL-cholesterol,[3]; [7],72 mg/dL
same,LDL-cholesterol,[3]; [7],37 mg/dL
same,Total cholesterol,[3]; [7],120 mg/dL
same,HDL-cholesterol,[3]; [8],79 mg/dL
same,LDL-cholesterol,[3]; [8],33 mg/dL
same,Total cholesterol,[3]; [8],122 mg/dL
same,HDL-cholesterol,[3]; [9],70 mg/dL
same,LDL-cholesterol,[3]; [9],35 mg/dL
same,Total cholesterol,[3]; [9],115 mg/dL
same,HDL-cholesterol,[3]; [10],73 mg/dL
same,LDL-cholesterol,[3]; [10],19 mg/dL
same,Total cholesterol,[3]; [10],101 mg/dL
same,HDL-cholesterol,[3]; [11],76 mg/dL
same,LDL-cholesterol,[3]; [11],19 mg/dL
same,Total cholesterol,[3]; [11],107 mg/dL
same,HDL-cholesterol,[3]; [12],80 mg/dL
same,LDL-cholesterol,[3]; [12],37 mg/dL
same,Total cholesterol,[3]; [12],124 mg/dL
same,HDL-cholesterol,[3]; [13],91 mg/dL
same,LDL-cholesterol,[3]; [13],44 mg/dL
same,Total cholesterol,[3]; [13],147 mg/dL
same,HDL-cholesterol,[3]; [14],64 mg/dL
same,LDL-cholesterol,[3]; [14],33 mg/dL
same,Total cholesterol,[3]; [14],107 mg/dL
same,reduction of serum human apolipoprotein B protein (ELISA),[4]; 2 weeks,70%
same,reduction of serum human apolipoprotein B protein (ELISA),[4]; 4 weeks,87%
same,reduction of serum human apolipoprotein B protein (ELISA),[4]; 6 weeks,81%
same,reduction of serum human apolipoprotein B protein (ELISA),[4]; 8 weeks,41%
